Experimental data reported in PMC12195740, “Discovery of Novel Imidazothiazole-Based Hydroxamic Acid Derivatives as Potent Indoleamine 2,3-Dioxygenase 1 and Histone Deacetylase 6 Dual Inhibitors” (Molecules, 2025).

Columns and labels:
HDAC4 = HDAC4 (Homo sapiens, UniProt P56524); assay: HDAC isoform selectivity assay, HDAC4; format: biochemical; conditions: read-out: HDAC4 % inhibition rate at 10 μM
MDA-MB-231 cells = assay: Cell viability (MTT) assay, MDA-MB-231; conditions: Homo sapiens, MDA-MB-231, 48 h, read-out: Antiproliferative IC50, MDA-MB-231
Experimental: Section S 1.3 Cell viability assays
(§1) another 48 h. The cells were stained with 10 μl of MTT at incubator for approximately 4 h. The medium was discarded and replaced by 100 mL DMSO. The O.D. value was read at 570/630 nm with a spectrophotometer.

rhIDO1 = target: T1, rhIDO1 (Homo sapiens, UniProt P14902); assay: IDO1 inhibition assay; format: biochemical; conditions: means ± S.D. of three independent experiments
T1 construct: purchased
T1 sequence (P14902 whole entry): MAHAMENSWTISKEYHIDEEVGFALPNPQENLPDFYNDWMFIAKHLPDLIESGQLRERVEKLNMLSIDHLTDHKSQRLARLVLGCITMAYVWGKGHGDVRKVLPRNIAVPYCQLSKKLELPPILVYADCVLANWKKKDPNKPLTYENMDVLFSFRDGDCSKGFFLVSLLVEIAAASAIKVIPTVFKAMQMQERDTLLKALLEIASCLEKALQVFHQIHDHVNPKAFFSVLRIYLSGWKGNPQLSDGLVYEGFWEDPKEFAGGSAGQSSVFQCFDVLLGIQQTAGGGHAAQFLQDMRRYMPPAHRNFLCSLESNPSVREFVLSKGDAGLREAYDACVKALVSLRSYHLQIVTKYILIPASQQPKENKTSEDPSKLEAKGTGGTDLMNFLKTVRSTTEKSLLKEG
Experimental: Section S1. Biological assays […]
Section S 1.2 IDO1 inhibition assays
IDO1 inhibition assays were carried out according to the manufacturers’ procedures, as described previously. The standard assay mixture (100 μL) contained 50 mM of potassium phosphate buffer (pH = 6.5), 10 mM ascorbate, 10 μM methylene blue, 100 μg/mL catalase, 1 mM L-tryptophan and 10 μg/mL of rhIDO1. The plate was incubated at 37 °C in a dark environment, and reactions were terminated after 60 min by the addition of 50 μL of fluorogenic developer solution and further incubated at 45 °C in dark for 3 h. Then, the plate was allowed to cool to room temperature for at least 1 h. After centrifugation at 1500g for 5 min at 20 °C, the fluorescence […]
M1000 Pro, Tecan US, Morrisville, NC) in an end-point mode. […]

MCF-7 cells = assay: Cell viability (MTT) assay, MCF-7; conditions: Homo sapiens, MCF7, 48 h, read-out: Antiproliferative IC50, MCF-7
Experimental: Section S 1.3 Cell viability assays
as §1

HCT-116 cells = assay: Cell cycle analysis (PI, flow cytometry); format: cell-based; conditions: 24 h, control 7.77%
Experimental: To assess the impact of compound 10e on the cell cycle, HCT-116 cells were treated with different concentrations of compound 10e (5 μM, 10 μM, and 20 μM) for 24 h, then stained with PI, and analyzed using flow cytometry.
Cell Bank at the Chinese Academy of Sciences. Hct-116, SW480, MDA-MB-231 and MCF-7 cell […]
FBS. DMEM and FBS were obtained from Gibco-Thermo (BRL Co. Ltd., USA). The plates were incubated at 37 °C in a humidified atmosphere of 5% CO2/95% air overnight. The cells were then […]
another 48 h. The cells were stained with 10 μl of MTT at incubator for approximately 4 h. The medium was discarded and replaced by […] DMSO. The O.D. value was read at 570/630 nm with a spectrophotometer.
Section S 1.4 Molecular docking
Molecular docking was carried out in Sybyl-X 2.1 on a Windows workstation. The crystal structure of IDO1 protein with inhibitor was retrieved from the RCSB Protein Data Bank (IDO1:
4PK5, HDAC6: 6THV). Firstly, the 3D structure of the selected compound was built with Sybyl-X 2.1 sketch followed by energy minimization with the MMFF94 force field and Gasteiger-Marsili charges. The Powell’s method was used to optimize the geometry with a distance dependent dielectric constant and a termination energy gradient of 0.005 kcal/mol. […]
with 75% cold ethanol at 4 °C overnight. […] The samples were measured using flow cytometry and analyzed by Flowjo software. […]
Total cell lysates from cultured HCT-116 cells after treatment with compound 10e as mentioned earlier were obtained by lysing the cells in ice-cold RIPA buffer with protease and phosphatase inhibitor and stored at -20°C for future use. The protein concentrations were quantified by the Bradford method (Bio-Rad) using a Multimode Varioscan instrument (Thermo Fischer Scientific).
Equal amounts of protein per lane were applied to 12% SDS polyacrylamide gel for electrophoresis and transferred to a polyvinylidene difluoride (PVDF) membrane (Amersham Biosciences). […] Membranes were washed with TBST three times for 15 min and the protein bands were detected with chemiluminescence reagent (Thermo Fischer Scientific). […]

HDAC4, sequence (P56524 whole entry, species assumed, canonical isoform): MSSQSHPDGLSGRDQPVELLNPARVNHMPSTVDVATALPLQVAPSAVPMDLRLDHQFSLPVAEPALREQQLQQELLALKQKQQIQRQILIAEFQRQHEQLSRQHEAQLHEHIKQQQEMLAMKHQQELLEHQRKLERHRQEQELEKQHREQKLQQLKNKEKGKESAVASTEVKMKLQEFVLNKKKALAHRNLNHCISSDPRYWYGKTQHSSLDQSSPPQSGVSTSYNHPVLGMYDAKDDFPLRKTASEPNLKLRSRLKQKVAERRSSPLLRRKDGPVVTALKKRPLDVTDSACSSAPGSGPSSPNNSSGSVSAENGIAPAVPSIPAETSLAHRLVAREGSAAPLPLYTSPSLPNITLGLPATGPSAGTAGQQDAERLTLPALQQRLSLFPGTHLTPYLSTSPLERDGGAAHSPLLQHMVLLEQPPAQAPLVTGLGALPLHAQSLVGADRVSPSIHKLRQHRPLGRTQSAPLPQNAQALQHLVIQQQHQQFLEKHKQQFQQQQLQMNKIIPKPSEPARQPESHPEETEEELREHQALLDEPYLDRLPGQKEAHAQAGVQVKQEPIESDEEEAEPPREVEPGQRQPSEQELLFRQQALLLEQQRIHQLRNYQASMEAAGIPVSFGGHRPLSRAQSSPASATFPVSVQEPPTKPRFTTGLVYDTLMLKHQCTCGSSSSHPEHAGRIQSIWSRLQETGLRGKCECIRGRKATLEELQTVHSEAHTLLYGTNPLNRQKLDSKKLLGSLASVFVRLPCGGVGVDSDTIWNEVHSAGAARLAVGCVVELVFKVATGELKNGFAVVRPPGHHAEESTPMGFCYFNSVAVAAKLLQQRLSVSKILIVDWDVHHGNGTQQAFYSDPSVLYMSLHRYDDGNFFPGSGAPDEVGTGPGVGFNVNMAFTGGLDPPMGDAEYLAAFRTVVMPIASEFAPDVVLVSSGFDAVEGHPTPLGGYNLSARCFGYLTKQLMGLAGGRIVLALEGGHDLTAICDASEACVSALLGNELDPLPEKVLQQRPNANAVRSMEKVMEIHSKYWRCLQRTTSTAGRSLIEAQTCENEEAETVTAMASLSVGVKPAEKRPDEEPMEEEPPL

## O=C(CCCCCCNc1ccc(NC(=O)c2cnc3scc(-c4ccc(Br)cc4)n23)cc1)NO [Compound 10e, 3-(4-Bromophenyl)-N-{4-[(7-(hydroxyamino)-7-oxoheptyl)amino]phenyl}imidazo[2,1-b]thiazole-5-carboxamide]
HDAC4
  inhibition at 10 µM: 9.58%
MDA-MB-231 cells
  IC50: 43.7 ± 1.89 µM
rhIDO1
  IC50: 0.086 ± 0.02 µM
MCF-7 cells
  IC50: 36.5 ± 5.45 µM
HCT-116 cells; HCT-116, 5 μM
  cell population in G2/M phase: 17.39%
HCT-116 cells; HCT-116, 10 μM
  cell population in G2/M phase: 31.89%
HCT-116 cells; HCT-116, 20 μM
  cell population in G2/M phase: 47.18%
